Results on four compounds are retold here after US9987200B2, “Activated micro-bubble based root canal disinfection” (SyACT, LLP, priority 2014, dated 2018).

The subject of one data set is bacterial biofilms. Briefly: Laser confocal microscopy of treated root canals, live/dead bacteria (FIGS. 20-22). It is filed as cell-based. To be noted: then sonic and light activation of the micro-bubble solution. The source says:
FIGS. 21-22 show laser confocal microscopy images showing bacterial biofilms (and dead cells as red and viable cells are green).
In these photographs, active bacteria are shown in green and dead bacteria as shown in red. FIG. 20 contains photomicrographs of a control tooth.

Data set [1] can be described thus: Singlet oxygen release measured with 1,3-diphenylisobenzofuran (DPBF). It is filed as physicochemical. To be noted: with sonic activation compared with no sonic activation (FIG. 11). As for the experimental part: As noted above, when the light reaches the photosensitive compound, the photosensitive compound releases energy to convert the oxygen molecules to singlet oxygen. […] The singlet oxygen release was measured using 1, 3-diphenylisobenzofuran (DPBF). DPBF is a chemical used to study the degree of release of singlet oxygen; it is not actually part of the micro-bubble solution or the photosensitizing solution. As is known, DPBF undergoes bleaching with singlet oxygen and this can be calorimetrically quantified. […]
FIG. 11 contains graphs showing singlet oxygen yield of methylene blue (on the left hand graph) and rose bengal (on the right hand graph) both with sonic activation (square data points) and without sonic activation (diamond data points). […] The substantial fall off in absorbance in the sonically activated samples (as compared to the non-activated samples) for both the methylene blue and the rose bengal show substantial increase in micro-bubble activity within the first few seconds of activation of the micro-bubble solution.

Data set [2] relates to Enterococcus faecalis biofilms. Briefly: Confocal laser scanning microscopy of biofilms subjected to different treatments (FIG. 15). It is filed as cell-based. To be noted: one week old E. faecalis biofilms; live green, dead red; light 660 nm. The text has this: FIG. 15 contains in the first two columns, images showing the three-dimensional confocal laser scanning microscopy reconstruction of the Enterococcus faecalis biofilms subjected to different treatments (60×).
The first two columns of FIG. 15 contain images which show one week old bacterial biofilms of Enterococcus faecalis before and after treatment for the different groups. Each of the six images in the first two columns show active and dead bacteria, with the active bacteria being shown in green and the dead bacteria being shown in red. The two left-hand columns of FIG. 15 contains, images showing the three-dimensional confocal laser scanning microscopy reconstruction of the Enterococcus faecalis biofilms subjected to different treatments (60×). […] However, there active bacteria remain.

The conditions of data set [3]: cited from earlier work.

Regarding `CN(C)c1ccc2nc3ccc(=[N+](C)C)cc-3sc2c1` [methylene blue], the “Active bacteria remaining in root canal” value in the data set on bacterial biofilms (MB in a water carrier) is “substantially all of the active bacteria have been eliminated”; in the data set on bacterial biofilms (MB in polyethylene glycol, alcohol and water carrier solution), “substantially all of the active bacteria have been eliminated”. In data set [1], the “Fall off in absorbance (singlet oxygen yield)” value was “falls off much more rapidly”.
In the case of `OCl` [sodium hypochlorite], the “Active (live) bacteria remaining in biofilm” value in data set [2] was “kills (eliminates) nearly all of the active bacteria”.
As to Triton X-100, the Solubility result in data set [3] (at 25° C. in water, benzene, toluene, xylene, trichloroethylene, ethylene glycol, ethyl ether, ethanol, isopropanol, ethylene dichloride) was “soluble in all proportions”. Further, the “Viscosity (Brookfield)” value in data set [3] (at 25° C.) is on record as 240 cps.
Regarding `O=C([O-])c1c(Cl)c(Cl)c(Cl)c(Cl)c1-c1c2cc(I)c(=O)c(I)c-2oc2c(I)c([O-])c(I)cc12.[Na+].[Na+]` [rose bengal], in data set [1], the “Fall off in absorbance (singlet oxygen yield)” value is “fell off much more quickly”.
